Laboratory results as given in patent US20230086703A1, “N-(4-(5-chloropyridin-3-yl)phenyl)-2-(2-(cyclopropanesulfonamido)pyrimidin-4-yl) butanamide derivatives and related compounds as human CTPS1 inhibitors for the treatment of proliferative diseases” (Step Pharma S.A.S., priority 2019, published 2023).

Target: T1, human CTPS1 (Homo sapiens, UniProt P17812)
T1 construct: FLAG (with GG linker); His8 (with GG linker); purchased Proteros biostructures GmbH
T1 sequence (P17812 1-591): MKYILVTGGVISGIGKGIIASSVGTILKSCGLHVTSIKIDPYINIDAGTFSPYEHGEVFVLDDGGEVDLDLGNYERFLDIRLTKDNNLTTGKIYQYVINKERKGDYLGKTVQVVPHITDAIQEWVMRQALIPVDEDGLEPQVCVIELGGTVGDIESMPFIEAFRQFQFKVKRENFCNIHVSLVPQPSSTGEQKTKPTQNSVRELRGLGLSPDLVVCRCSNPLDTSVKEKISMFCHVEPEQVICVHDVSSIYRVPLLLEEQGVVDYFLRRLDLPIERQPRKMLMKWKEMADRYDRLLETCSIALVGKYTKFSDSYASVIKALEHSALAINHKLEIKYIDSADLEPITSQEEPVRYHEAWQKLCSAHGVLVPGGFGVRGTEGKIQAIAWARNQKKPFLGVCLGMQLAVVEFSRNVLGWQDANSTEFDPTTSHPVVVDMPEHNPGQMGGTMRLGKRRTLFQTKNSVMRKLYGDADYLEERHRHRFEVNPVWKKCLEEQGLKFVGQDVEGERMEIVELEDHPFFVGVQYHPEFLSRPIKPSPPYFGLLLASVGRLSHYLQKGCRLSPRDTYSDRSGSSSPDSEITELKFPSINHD
Experiment: RapidFire/MS-based enzyme selectivity assay (human CTPS1 versus CTPS2), CTPS1 isoform
Type: biochemical
Experimental: Human CTPS1 Versus CTPS2 Selectivity Assessment by RapidFire/MS Analysis.
The enzyme inhibitory activities against each target isoform of interest may be determined for the compounds of the invention using an optimised RapidFire high-throughput mass spectrometry (RF/MS) assay format. RF/MS assays for both human CTPS1 and CTPS2 may be performed in assay buffer consisting of 50 mM HEPES (Merck), 20 mM MgCl2, 5 mM KCl, 1 mM DTT, 0.01% Tween-20, pH to 8.0 accordingly. Human full-length active C-terminal FLAG-His-tag CTPS1 (UniProtKB—P17812, CTPS1[1-591]-[…] (CTPS1[1-591]-SEQ ID NO: 1)) may be obtained from Proteros biostructures GmbH. Human full length active C-terminal FLAG-His-Avi tagged CTPS2 (UniProtKB—Q9NRF8, CTPS2 [1-586]-[…] (CTPS2 [1-586]—SEQ ID NO: 2)) may be obtained from Harker Bio.
Human CTPS (1 or 2) protein may be prepared in 1× assay buffer to the final working protein concentration required for the reaction. A 2 uL volume per well of 2×CTPS (1 or 2) protein may be mixed with 40 nL of compound using acoustic (ECHO) delivery and incubated for 10 minutes at 25° C. Each isoform enzymatic reaction may be subsequently initiated by addition of 2 uL per well of a 2× substrate mix in assay buffer. For hCTPS1: ATP (0.3 mM), UTP (0.2 mM), GTP (0.07 mM) and L-glutamine (0.1 mM). For hCTPS2: ATP (0.1 mM), UTP (0.04 mM), GTP (0.03 mM) and L-glutamine (0.1 mM). Each mixture may be incubated for an appropriate amount of time per isoform within the determined linear phase of the reaction at 25° C. A 80 uL volume of stop solution (1% formic acid with 0.5 uM ^13C9-^15N3-CTP in H2O) may be added and the plate immediately heat-sealed and centrifuged for 10 minutes at 4,000 rpm. Following centrifugation, plates may be loaded onto the Agilent RapidFire microfluidic solid phase extraction system coupled to an API4000 triple quadrupole mass spectrometer (RF/MS) for analysis.
In all cases, the enzyme converts UTP to CTP. Highly specific and sensitive multiple reaction monitoring (MRM) MS methods may be optimised for the detection of the enzymatic reaction product, CTP, and the stable isotope labelled product standard ^13C9-^15N3-CTP. Readout for data analysis may be calculated as the ratio between the peak area of the product CTP and the internal standard ^13C9-^15N3-CTP. For data reporting, the following equation may be used:
(R=ratio/readout, P=product signal area, IS=internal standard signal area)
For each screening plate, the means of the negative (DMSO) and positive control values were used for the calculation of the respective assay window (S/B) and Z′ values. The median of the respective control values was used for calculation of percent inhibition according to the following equation:
(I=Inhibition, Rneq=median of negative control readout values, Rpos=median of positive control readout values, Rsample=sample readout value)
Percentage inhibition was then plotted against compound concentration, and the 50% inhibitory concentration (IC50) was determined from the resultant concentration-response curve.
Fold selectivity between CTPS1 and CTPS2 was subsequently calculated according to the following equation: […]

[1] = Table 16, human CTPS1 over human CTPS2, RapidFire/MS IC50 values
[2] = RapidFire/MS IC50 values of CTPS1 and CTPS2, Table 15

Selectivity (fold selectivity between CTPS1 and CTPS2) [1] | Selectivity (fold selectivity between CTPS1 and CTPS2) [2] | Structure (SMILES)
+ (2-30 fold (+)) | – | CCOc1cncc(-c2ccc(C(=O)NC(C)(C)c3csc(NS(=O)(=O)C4CC4)n3)c(C(F)(F)F)c2)n1 [R47, N-(2-(2-(cyclopropanesulfonamido)thiazol-4-yl)propan-2-yl)-4-(6-ethoxypyrazin-2-yl)-2-(trifluoromethyl)benzamide]
+ (2-30 fold (+)) | – | COc1cncc(-c2ccc(C(=O)NC(C)(C)c3csc(NS(=O)(=O)C4CC4)n3)cc2)n1 [R54, N-(2-(2-(cyclopropanesulfon-amido)thiazol-4-yl)propan-2-yl)-4-(6-methoxypyrazin-2-yl)benzamide]
+ (2-30 fold (+)) | – | CCOc1cncc(-c2ccc(C(=O)N(C)C(CC)c3csc(NS(=O)(=O)C4CC4)n3)c(F)c2)n1 (racemic) [R63, N-(1-(2-(cyclopropanesulfonamido)thiazol-4-yl)propyl)-4-(6-ethoxypyrazin-2-yl)-2-fluoro-N-methylbenzamide]
+ (2-30 fold (+)) | – | CCOc1cncc(-c2ccc(C(=O)NC(C)(C)c3nc(NS(=O)(=O)C4CC4)sc3Cl)nc2)n1 [R73]
++ (>30-60 fold (++)) | – | CC(C)Oc1cncc(-c2ccc(C(=O)NC(C)(C)c3csc(NS(=O)(=O)C4CC4)n3)c(F)c2)n1 [R43, N-(2-(2-(cyclopropanesulfonamido)thiazol-4-yl)propan-2-yl)-2-fluoro-4-(6-isopropoxypyrazin-2-yl)benzamide]

Further lines, the compound ahead of its results:

Structure (SMILES) | Selectivity (fold selectivity between CTPS1 and CTPS2) [1] | Selectivity (fold selectivity between CTPS1 and CTPS2) [2]
CCOc1cncc(-c2ccc(NC(=O)C(CCOC)c3ccnc(NS(=O)(=O)C4CC4)n3)nc2)n1 (stereo not shown) [P145, 2-(2-(cyclopropanesulfonamido)pyrimidin-4-yl)-N-(5-(6-ethoxypyrazin-2-yl)pyridin-2-yl)-4-methoxybutanamide] | – | +++ (>60 fold (+++))
CCOc1cncc(-c2ccc(NC(=O)C(C)(C)c3ccnc(NS(=O)(=O)C4CC4)n3)cc2)n1 [P65, 2-(2-(cyclopropanesulfonamido)pyrimidin-4-yl)-N-(4-(6-ethoxypyrazin-2-yl)phenyl)-2-methylpropanamide] | – | ++ (>30-60 fold (++))
CCOc1cncc(-c2ccc(NC(=O)C(F)(CC)c3ccnc(NS(C)(=O)=O)n3)nc2)n1 (stereo not shown) [P151, N-(5-(6-ethoxypyrazin-2-yl)pyridin-2-yl)-2-fluoro-2-(2-(methylsulfonamido)pyrimidin-4-yl)butanamide] | – | +++ (>60 fold (+++))
CCOc1cncc(-c2ccc(NC(=O)C(CC)c3cncc(NS(=O)(=O)C4CC4)n3)nc2)n1 (stereo not shown) [P201, 2-(6-(cyclopropanesulfonamido)pyrazin-2-yl)-N-(5-(6-ethoxypyrazin-2-yl)pyridin-2-yl)butanamide] | – | +++ (>60 fold (+++))
CCOc1cncc(-c2ccc(NC(=O)C3(c4ccnc(NS(=O)(=O)C5CC5)n4)CCOCC3)c(F)c2)n1 [P143, 4-(2-(cyclopropanesulfonamido)pyrimidin-4-yl)-N-(4-(6-ethoxypyrazin-2-yl)-2-fluorophenyl)tetrahydro-2H-pyran-4-carboxamide] | – | +++ (>60 fold (+++))
CCOc1cncc(-c2ccc(NC(=O)C(CC)c3ccnc(NS(=O)(=O)C4CC4)n3)c(C)c2)n1 (stereo not shown) [P161, 2-(2-(cyclopropanesulfonamido)pyrimidin-4-yl)-N-(4-(9-ethoxypyrazin-2-yl)-2-methylphenyl)butanamide] | – | + (2-30 fold (+))
CCC(C(=O)Nc1ccc(-c2cncc(OC)n2)cn1)c1ccnc(NS(=O)(=O)C2CC2)n1 (stereo not shown) [P159, 2-(2-(cyclopropanesulfonamido)pyrimidin-4-yl)-N-(5-(6-methoxypyrazin-2-yl)pyridin-2-yl)butanamide] | – | +++ (>60 fold (+++))
CCOc1cncc(-c2ccc(NC(=O)C3(c4ccnc(NS(=O)(=O)C5CC5)n4)CCCC3)cc2)n1 [P2, 1-(2-(Cyclopropanesulfonamido)pyrimidin-4-yl)-N-(4-(6-ethoxypyrazin-2-yl)phenyl)cyclopentanecarboxamide] | – | +++ (>60 fold (+++))
